Laboratory results taken from ChEMBL document CHEMBL4049450, “Discovery of 5-Azaindazole (GNE-955) as a Potent Pan-Pim Inhibitor with Optimized Bioavailability” (J Med Chem, 2017).
In brackets after ≈: the same amount, converted by molar mass.

Assays:
[1] = Metabolic stability in dog intestinal microsomes assessed as compound remaining after 60 mins in absence of NADPH/UDPGA; type: ADME, Canis lupus familiaris, Intestine, Microsome; settings: 1 h
[2] = Metabolic stability in human intestinal microsomes assessed as compound remaining after 60 mins in absence of NADPH/UDPGA; type: ADME, Intestine, Microsome; settings: 1 h
[3] = Metabolic stability in dog intestinal microsomes assessed as compound remaining after 60 mins in presence of NADPH/UDPGA; type: ADME, Canis lupus familiaris, Intestine, Microsome; settings: 1 h
[4] = Metabolic stability in cynomolgus monkey intestinal microsomes assessed as compound remaining after 60 mins in presence of NADPH/UDPGA; type: ADME, Macaca fascicularis, Intestine, Microsome; settings: 1 h
[5] = Metabolic stability in rat intestinal microsomes assessed as compound remaining after 60 mins in presence of NADPH/UDPGA; type: ADME, Intestine, Microsome; settings: for Stability: microsomes, 1 h; for remaining at 1 h: intestinal microsomes, read-out: Stability
[6] = Metabolic stability in mouse intestinal microsomes assessed as compound remaining after 60 mins in absence of NADPH/UDPGA; type: ADME, Intestine, Microsome; settings: 1 h
[7] = Metabolic stability in mouse intestinal microsomes assessed as compound remaining after 60 mins in presence of NADPH/UDPGA; type: ADME, Intestine, Microsome; settings: 1 h
[8] = Metabolic stability in human intestinal microsomes assessed as compound remaining after 60 mins in presence of NADPH/UDPGA; type: ADME, Intestine, Microsome; settings: 1 h
[9] = Metabolic stability in rat intestinal microsomes assessed as compound remaining after 60 mins in absence of NADPH/UDPGA; type: ADME, Intestine, Microsome; settings: for Stability: microsomes, 1 h; for remaining at 1 h: intestinal microsomes, read-out: Stability
[10] = Metabolic stability in cynomolgus monkey intestinal microsomes assessed as compound remaining after 60 mins in absence of NADPH/UDPGA; type: ADME, Macaca fascicularis, Intestine, Microsome; settings: 1 h
[11] = Oral bioavailability in rat at 5 mg/kg; type: ADME, organism-based; settings: in vivo
[12] = target: Serine/threonine-protein kinase pim-2 (Homo sapiens, UniProt Q9P1W9); assay: Inhibition of PIM2 (unknown origin) using 5FAM-ARKRRRHPSGPPTA as substrate after 90 mins in presence of ATP by caliper microfluidic mobility shift assay
[13] = Clearance in rat at 1 mg/kg, iv; type: ADME, organism-based; settings: in vivo
MM1.S = assay: Antiproliferative activity against human MM1S cells after 72 hrs by CellTiter-Glo assay; type: functional, cell-based
[14] = Clearance in rat liver microsomes; type: ADME, microsome
[15] = target: T1, Serine/threonine-protein kinase pim-1 (Homo sapiens, UniProt P11309); assay: Inhibition of PIM1 (unknown origin) using 5FAM-ARKRRRHPSGPPTA as substrate after 90 mins in presence of ATP by caliper microfluidic mobility shift assay
Target sequence in this assay (P11309 whole entry): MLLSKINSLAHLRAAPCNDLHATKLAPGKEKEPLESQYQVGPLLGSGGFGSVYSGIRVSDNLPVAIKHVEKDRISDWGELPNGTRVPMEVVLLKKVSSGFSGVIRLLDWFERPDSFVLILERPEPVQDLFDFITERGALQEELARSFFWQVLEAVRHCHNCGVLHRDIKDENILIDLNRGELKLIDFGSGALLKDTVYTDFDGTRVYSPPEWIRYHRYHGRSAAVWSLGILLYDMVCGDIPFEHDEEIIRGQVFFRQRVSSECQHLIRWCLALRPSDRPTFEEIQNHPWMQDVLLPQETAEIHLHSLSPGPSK

[16] = Clearance in rat hepatocytes; type: ADME, cell-based, Hepatocyte
[17] = target: Serine/threonine-protein kinase pim-3 (Homo sapiens, UniProt Q86V86); assay: Inhibition of PIM3 (unknown origin) using 5FAM-ARKRRRHPSGPPTA as substrate after 90 mins in presence of ATP by caliper microfluidic mobility shift assay
[18] = Kinetic solubility of compound at pH 7.4; settings: buffer
[19] = Metabolic stability in rat intestinal microsomes assessed as compound remaining after 60 mins in presence of NADPH; type: ADME, Intestine, Microsome; settings: read-out: Stability
[20] = Metabolic stability in rat intestinal microsomes assessed as compound remaining after 60 mins in presence of UDPGA; type: ADME, Intestine, Microsome; settings: read-out: Stability
[21] = Efflux ratio of apparent permeability in MDCK cells; settings: dog
[22] = Apparent permeability across apical to basolateral side in MDCK cells; type: ADME, cell-based, Canis lupus familiaris; settings: dog
Plasma [23] = assay: Drug level in rat plasma treated with N4-Phenylpyrimidine-2,4-diamine at 5 mg/kg, po; type: ADME, organism-based; settings: in vivo
[24] = target: T1, Serine/threonine-protein kinase pim-1; assay: Inhibition of PIM1 (unknown origin) at 0.1 uM
Target sequence in this assay (P11309 whole entry, looked up): as the sequence (P11309 whole entry) above

[25] = target: Receptor-type tyrosine-protein kinase FLT3 (Homo sapiens) (UniProt P36888); assay: Inhibition of FLT3 (unknown origin) at 0.1 uM
hERG (KCNH2) [26] = target: T2, hERG (KCNH2) (Homo sapiens, UniProt Q12809); assay: Inhibition of human ERG expressed in HEK293 cells at 10 uM after 5 mins by patch clamp assay; type: cell-based; settings: HEK293 cells that express hERG
hERG (KCNH2) [27] = target: T2, hERG (KCNH2); assay: Inhibition of human ERG expressed in HEK293 cells at 1 uM after 5 mins by patch clamp assay; type: cell-based; settings: HEK293 cells that express hERG
[28] = target: Dual specificity protein kinase CLK1 (Homo sapiens) (UniProt P49759); assay: Inhibition of CLK1 (unknown origin) at 0.1 uM
Homo sapiens [29] = organism: Homo sapiens; assay: Inhibition of PIM in human […] cells assessed as reduction in BAD phosphorylation by Western blot analysis; type: cell-based
Homo sapiens [30] = organism: Homo sapiens; assay: Inhibition of PIM in human […] cells assessed as reduction in 4EBP1 phosphorylation by Western blot analysis; type: cell-based
Homo sapiens [31] = organism: Homo sapiens; assay: Inhibition of PIM in human MM1S cells assessed as reduction in S6 s240/244 phosphorylation by Western blot analysis; type: cell-based
Homo sapiens [32] = organism: Homo sapiens; assay: Inhibition of PIM in human MM1S cells assessed as reduction in S6 s235/236 phosphorylation by Western blot analysis; type: cell-based
Plasma [33] = assay: Drug metabolism in rat assessed as 6-((R)-1-(6-(5-(1-ethyl-1H-pyrazol-4-yl)-1H-pyrazolo[3,4-c]pyridin-3-yl)pyridin-2-yl)piperidin-3-ylamino)-3,4,5-trihydroxytetrahydro-2H-pyran-2-carboxylic acid metabolite formation in plasma at 5 mg/kg, po; type: ADME, organism-based; settings: in vivo
Plasma [34] = assay: Drug metabolism in rat assessed as M1 metabolite formation in plasma at 5 mg/kg, po; type: ADME, organism-based; settings: in vivo

Chain of Serine/threonine-protein kinase pim-2 (Q9P1W9 whole entry): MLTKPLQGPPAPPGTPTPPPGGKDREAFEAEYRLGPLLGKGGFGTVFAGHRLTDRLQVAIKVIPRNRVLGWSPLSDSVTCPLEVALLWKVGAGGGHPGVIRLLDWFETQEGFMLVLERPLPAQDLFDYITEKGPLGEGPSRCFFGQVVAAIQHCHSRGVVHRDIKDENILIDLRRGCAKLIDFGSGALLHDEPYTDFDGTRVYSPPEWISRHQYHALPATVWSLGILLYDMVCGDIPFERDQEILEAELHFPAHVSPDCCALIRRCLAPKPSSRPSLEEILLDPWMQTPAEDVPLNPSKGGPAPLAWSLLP
T2 sequence (Q12809 whole entry): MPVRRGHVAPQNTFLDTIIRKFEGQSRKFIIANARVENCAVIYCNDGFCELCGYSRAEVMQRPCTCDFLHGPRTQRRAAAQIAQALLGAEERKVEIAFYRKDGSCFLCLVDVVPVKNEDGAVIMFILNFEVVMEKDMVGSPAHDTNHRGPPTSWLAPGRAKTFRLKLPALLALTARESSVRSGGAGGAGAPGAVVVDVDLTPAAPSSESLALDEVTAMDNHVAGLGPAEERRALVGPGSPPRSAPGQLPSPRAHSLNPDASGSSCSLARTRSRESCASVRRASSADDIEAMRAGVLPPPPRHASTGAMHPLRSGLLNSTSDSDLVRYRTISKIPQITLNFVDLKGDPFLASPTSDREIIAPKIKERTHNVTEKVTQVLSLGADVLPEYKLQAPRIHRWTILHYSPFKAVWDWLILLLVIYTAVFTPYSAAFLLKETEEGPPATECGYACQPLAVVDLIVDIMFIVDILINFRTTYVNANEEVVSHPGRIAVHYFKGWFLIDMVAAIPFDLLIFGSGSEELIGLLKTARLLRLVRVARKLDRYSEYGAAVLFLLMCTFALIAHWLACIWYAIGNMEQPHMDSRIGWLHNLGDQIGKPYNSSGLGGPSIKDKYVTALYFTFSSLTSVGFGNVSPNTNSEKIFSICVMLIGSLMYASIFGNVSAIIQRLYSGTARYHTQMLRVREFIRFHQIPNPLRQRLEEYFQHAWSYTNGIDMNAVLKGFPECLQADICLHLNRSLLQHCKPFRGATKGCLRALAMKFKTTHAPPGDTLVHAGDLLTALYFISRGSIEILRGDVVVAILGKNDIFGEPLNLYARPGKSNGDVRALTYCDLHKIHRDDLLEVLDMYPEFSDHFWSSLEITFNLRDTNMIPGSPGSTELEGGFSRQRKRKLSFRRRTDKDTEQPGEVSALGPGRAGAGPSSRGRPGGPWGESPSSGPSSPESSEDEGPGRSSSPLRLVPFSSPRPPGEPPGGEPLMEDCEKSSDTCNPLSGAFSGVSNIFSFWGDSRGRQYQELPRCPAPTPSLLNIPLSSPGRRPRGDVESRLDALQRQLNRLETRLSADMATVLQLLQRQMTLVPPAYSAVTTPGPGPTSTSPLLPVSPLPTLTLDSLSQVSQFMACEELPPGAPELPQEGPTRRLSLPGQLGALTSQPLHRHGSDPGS
Chain of Dual specificity protein kinase CLK1 (Homo sapiens) (P49759 whole entry, looked up): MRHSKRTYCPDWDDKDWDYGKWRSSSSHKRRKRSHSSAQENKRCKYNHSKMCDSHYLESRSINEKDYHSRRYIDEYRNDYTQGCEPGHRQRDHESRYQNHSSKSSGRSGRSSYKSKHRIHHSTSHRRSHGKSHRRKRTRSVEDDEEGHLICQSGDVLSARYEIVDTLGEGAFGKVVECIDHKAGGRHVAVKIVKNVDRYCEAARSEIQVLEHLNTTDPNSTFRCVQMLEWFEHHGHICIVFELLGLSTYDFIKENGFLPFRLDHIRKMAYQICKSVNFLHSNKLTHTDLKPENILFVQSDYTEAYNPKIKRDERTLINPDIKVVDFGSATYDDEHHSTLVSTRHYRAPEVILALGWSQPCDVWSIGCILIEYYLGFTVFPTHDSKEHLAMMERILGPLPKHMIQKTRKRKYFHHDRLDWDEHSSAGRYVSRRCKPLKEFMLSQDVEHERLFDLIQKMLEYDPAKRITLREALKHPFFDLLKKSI
Chain of Receptor-type tyrosine-protein kinase FLT3 (Homo sapiens) (P36888 whole entry): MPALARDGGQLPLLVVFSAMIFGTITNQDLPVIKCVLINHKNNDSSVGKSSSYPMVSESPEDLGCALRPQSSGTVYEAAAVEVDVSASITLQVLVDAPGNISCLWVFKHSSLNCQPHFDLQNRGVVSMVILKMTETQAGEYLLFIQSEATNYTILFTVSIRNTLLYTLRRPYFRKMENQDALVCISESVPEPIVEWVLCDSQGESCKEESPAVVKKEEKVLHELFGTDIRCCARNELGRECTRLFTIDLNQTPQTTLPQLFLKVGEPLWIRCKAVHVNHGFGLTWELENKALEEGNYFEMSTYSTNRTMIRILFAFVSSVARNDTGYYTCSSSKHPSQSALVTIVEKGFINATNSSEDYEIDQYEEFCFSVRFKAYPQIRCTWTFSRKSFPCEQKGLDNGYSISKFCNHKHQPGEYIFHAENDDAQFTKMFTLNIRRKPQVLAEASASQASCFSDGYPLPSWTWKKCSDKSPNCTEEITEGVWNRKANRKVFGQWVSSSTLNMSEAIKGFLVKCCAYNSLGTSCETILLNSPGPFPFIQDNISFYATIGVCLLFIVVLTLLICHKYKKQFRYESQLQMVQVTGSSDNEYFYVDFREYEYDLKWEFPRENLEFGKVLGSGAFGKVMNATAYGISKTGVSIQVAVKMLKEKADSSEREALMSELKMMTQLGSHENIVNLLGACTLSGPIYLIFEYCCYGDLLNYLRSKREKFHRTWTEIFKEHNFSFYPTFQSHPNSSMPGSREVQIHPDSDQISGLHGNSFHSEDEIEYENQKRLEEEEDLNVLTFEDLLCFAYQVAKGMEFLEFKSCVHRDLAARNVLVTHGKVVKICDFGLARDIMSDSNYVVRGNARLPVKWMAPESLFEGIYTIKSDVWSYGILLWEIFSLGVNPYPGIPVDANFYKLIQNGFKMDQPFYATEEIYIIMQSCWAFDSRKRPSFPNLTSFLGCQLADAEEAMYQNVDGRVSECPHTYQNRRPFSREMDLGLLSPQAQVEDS

Structure (SMILES) | Stability [1] | Stability [2] | Stability [3] | Stability [4] | Stability [5] | Stability [6] | Stability [7] | Stability [8] | Stability [9] | Stability [10] | bioavailability [11] [%] | clearance [13] [mL/min/kg] | IC50 (MM1.S) [nM] | CLhep predicted [14] [mL/min/kg] | CLhep predicted [16] [mL/min/kg] | remaining at 1 h [5] [%] | remaining at 1 h [19] [%] | remaining at 1 h [9] [%] | remaining at 1 h [20] [%] | also measured
Cc1ccc(-c2n[nH]c3cnc(-c4cccnc4)cc23)nc1N1CC[C@@H](N)C1 | Stable | Stable | Stable | Stable | Unstable | Unstable | Unstable | Stable | Stable | Stable |  |  |  |  |  |  |  |  |  | 
Cn1cc(-c2cc3c(-c4cccc(N5CCC[C@@H](N)C5)n4)n[nH]c3cn2)cn1 | Stable | Stable | Stable | Stable | Unstable | Unstable | Unstable | Stable | Stable | Stable |  |  |  |  |  |  |  |  |  | 
Cc1cncc(-c2cc3c(-c4cccc(N5CCCNCC5)n4)n[nH]c3cn2)n1 |  |  |  |  |  |  |  |  |  |  | 1.3 | 65 | 220 | 33 | 35 | 59 | 97 | 103 | 40 | Ki [17]: 0.04 to 0.041 nM; Ki [12]: 0.11 to 0.17 nM; solubility kinetic [18]: 38.5 µM (≈ 14.9 µg/mL); Ki [15]: 0.02 to 0.022 nM; efflux ratio [21]: 4.9; Papp A→B [22]: 3.2 ×10⁻⁶ cm/s
c1cncc(-c2cc3c(-c4cccc(N5CCCNCC5)n4)n[nH]c3cn2)c1 | Stable | Stable | Stable | Stable | Unstable | Unstable | Unstable | Stable | Stable | Stable |  |  |  |  |  |  |  |  |  | 
CCn1cc(-c2cc3c(-c4cccc(N5CCC[C@@H](NC(C)=O)C5)n4)n[nH]c3cn2)cn1 |  |  |  |  |  |  |  |  |  |  |  |  |  |  |  |  |  |  |  | Drug metabolism (Plasma [23]): Metabolite_Detected
CCn1cc(-c2cc3c(-c4cccc(N5CCC[C@@H](N)C5)n4)n[nH]c3cn2)cn1 |  |  |  |  |  |  |  |  |  |  | 1 | 8 |  | 24 | 14 | 30 | 83 | 96 | 15 | solubility kinetic [18]: 116 µM (≈ 45.1 µg/mL); Drug metabolism (Plasma [33]): Metabolite_Detected; Drug metabolism (Plasma [23]): Metabolite_Detected; Drug metabolism (Plasma [34]): Metabolite_Detected; efflux ratio [21]: 56; Papp A→B [22]: 0.4 ×10⁻⁶ cm/s
c1cncc(-c2cc3c(-c4cccc(N5CCNCC5)n4)n[nH]c3cn2)c1 | Stable | Stable | Stable | Stable | Unstable | Unstable | Unstable | Stable | Stable | Stable |  |  |  |  |  |  |  |  |  | 

Second part, led by results:

Stability [1] | Stability [2] | Stability [3] | Stability [4] | Stability [5] | Stability [6] | Stability [7] | Stability [8] | Stability [9] | Stability [10] | bioavailability [11] [%] | clearance [13] [mL/min/kg] | IC50 (MM1.S) [nM] | CLhep predicted [14] [mL/min/kg] | CLhep predicted [16] [mL/min/kg] | remaining at 1 h [5] [%] | remaining at 1 h [19] [%] | remaining at 1 h [9] [%] | remaining at 1 h [20] [%] | Structure (SMILES) | also measured
 |  |  |  |  |  |  |  |  |  | 57 | 40 | 1200 | 42 | 31 |  |  |  |  | Cc1cncc(-c2cc3c(cn2)cnn3-c2cccc([C@H]3CNCCC3(F)F)n2)n1 | Ki [12]: 0.23 nM; Ki [15]: 0.07 nM
 |  |  |  |  |  |  |  |  |  | 103 | 34 | 500 to 510 | 29 | 19 | 101 |  |  |  | COc1ccc(-n2ncc3cnc(-c4cncc(C)n4)cc32)nc1N1CCC[C@H](N)C1 | Ki [17]: 0.008 to 0.02 nM; Ki [12]: 0.11 nM; inhibition [24]: 100%; inhibition [25]: 82%; inhibition at 5 min, 10 µM (hERG (KCNH2) [26]): 49%; inhibition at 5 min, 1 µM (hERG (KCNH2) [27]): 37%; inhibition [28]: 97%; inhibition (Homo sapiens [29]): Dose-dependent effect; inhibition (Homo sapiens [30]): Dose-dependent effect; Ki [15]: 0.018 to 0.03 nM; inhibition (Homo sapiens [31]): Dose-dependent effect; inhibition (Homo sapiens [32]): Dose-dependent effect
 |  |  |  |  |  |  |  |  |  | 0 | 21 |  | 34 | 34 | 27 | 37 | 98 | 62 | Cc1ccc(-c2n[nH]c3cnc(-c4cccnc4)cc23)nc1N1CCC[C@H](N)C1 | solubility kinetic [18]: 81.2 µM (≈ 31.3 µg/mL); efflux ratio [21]: 1.8; Papp A→B [22]: 3 ×10⁻⁶ cm/s
 |  |  |  |  |  |  |  |  |  | 42 | 28 | 5000 | 32 | 27 | 91 | 99 | 91 | 85 | Cc1cncc(-c2cc3c(cn2)cnn3-c2cccc(N3CCCNCC3)n2)n1 | 
